Assay results reported in US12291502B2, “Topoisomerase II-alpha inhibitors and methods of treating cancer using the same” (The Regents of the University of Colorado, priority 2019, dated 2025).
Several values for one entry are separate records, joined by “and”; a condition that tells them apart may be missing. Equal values may be shown once. Entries after “also recorded” stand apart in the source; their conditions may differ. Read-outs that look alike come from different tables or passages of the source.

Tests used:
[1] = system: TOP2A-dependent TCF-transcription in SW620-TOP tumor organoids; test: TCF (TOPflash) reporter assay in 3D tumor organoids; type: cell-based; conditions: for IC50: 72 hours
Description: TCF reporter assay in 3D Tumor organoid. Stable engineered cells containing pCDH-TOPflash-luc-EF1-puro were used to generate tumor organoid arrayed in 96-well plates and treated for 72 hours. One-Glo™ luciferase reagent and CellTiter-Glo™ 3D cell viability reagent (Promega) were used to determine the TCF reporter activity in viable cells.
After characterizing 3 and 7 as TOP2A ATP-competitive inhibitors, these compounds were next tested for their ability to inhibit TOP2A-dependent TCF-transcription using the well characterized TOPflash (TOP) luminescent reporter, which was used to generate a stably transduced SW620-TOP reporter cells as described previously (Zhou, et al., Oncogene 2016, 35:4990-9). These cells were used to generate single 3D tumor organoids (700 μm in diameter) uniformly arrayed in 96-well plates, which mimic aspects of tumor function observed in vivo. […] Like neo, the mode of action of compounds 3 and 7 also results in significant antitumor activity (FIGS. 3E-3H). […] In other words, the activity of 3 and 7 is long lasting, suppressing CSC stemness and related tumorigenicity. EMT is a major driving force promoting tumor cell invasion and metastasis. […] Tumor organoids were dissociated, and viable cells were washed and plated into the top chamber of 96-well invasion plate coated with Matrigel and incubated for an additional 72 hours without adding any additional compound. […] Taken together, the biological activity of 3 and 7 is consistent with the activity of neo, inhibiting TOP2A-dependent TCF-transcription that in turn reverses EMT while inhibiting the associated tumorigenic properties of mCRC.
A similar trend in IC50 values was observed compared to TOP2A enzyme studies, further supporting our proposed mechanism of action as inhibition of TOP2A-dependent TCF-transcription.
3D Tumor organoid TOPflash reporter assay. […] 35(38): p. 4990-9.] were used to generate tumor organoids arrayed in 96-well plates and treated for 72 h with TOP2A inhibitors. One-Glo™ luciferase reagent and CellTiter-Glo™ 3D cell viability reagent (Promega, WI) were used to determine the TCF reporter activity in viable cells. Briefly, reagents were added to the spheroids at 1:1 ratio (v:v) and the plates were placed on an orbital shaker (300 rpm) for 10 min at room temperature before the luminescence was read with Envision plate reader (PerkinElmer, MA). TCF reporter activity was normalized to organoid viability and inhibitors treated conditions were normalized to DMSO treated controls.

[2] = system: vimentin promoter activity (VimPro-GFP) in SW620 cells; test: VimPro-GFP EMT reporter assay
Description: VimPro-GFP and EcadPro-mCherry reporter assays. VimPiro-GFP: SW620 cells were first transduced with NucLight Red virus (Essen BioSciences) and selected with Zeocin at 200 μg/mL, and then transduced with pCDH-VimPro-GFP-EF1-puro virus and selected with puromycin at 4 μg/mL. The dual fluorescently labeled cells were plated and treated in 3D tumor organoid as described. Tumor organoid images were recorded every 2 hours over a 72 hours period using an incucyte ZOOM content imaging system (Essen BioSciences) or PerkinElmer Phenix imager (PerkinElmer).
Analogs were also assessed for their ability to modulate or reverse EMT using VimPro-GFP and EcadPro-RFP SW620 reporter cells cultured as tumor organoids, determining EC50 dose responses over 72 hours (Table 2).
VimPro-GFP and EcadPro-RFP reporter assays. Stable VimPro-GFP or EcadPro-RFP SW620 reporter cells were generated using pCDH-VimPro-GFP-EF1-puro virus or pCDH-EcadPro-mCherry-EF1-puro virus as previously reported. […] Transduced cells were selected with puromycin at 2 μg/mL. The stable fluorescent labeled reporter cells were then used to generate tumor organoids as described. Tumor organoids were then treated with TOP2A inhibitors at 10 μM for an additional 72 h. Following treatment, tumor organoids were stained with 16 μM of Hoechst 33342 for 1 h, which functions as a nuclear stain for imaging segmentation. Images were taken with a 5× air objective. Z stacks were set at 20 μm apart for a total of 7 layers. Imaging analysis was performed using an Opera Phenix high content screening (HCS) system and Harmony high-content imaging and analysis software interface (PerkinElmer, MA). Nuclei were identified with Hoechst 33342 stain within each layer, and cells were found with either GFP or mCherry channel. The intensities of each fluorescence channel within the cells were calculated and thresholds were set based on the background intensities. Percentages of GFP or mCherry positive cells were calculated and normalized to the DMSO treated group.
VimPro-GFP and EcadPro-RFP reporter assays. Stable VimPro-GFP or EcadPro-RFP SW620 reporter cells were generated using pCDH-VimPro-GFP-EF1-puro virus or pCDH-EcadPro-mCherry-EF1-puro virus as previously reported. […] Transduced cells were selected with puromycin at 2 μg/mL. The stable fluorescent labeled reporter cells were then used to generate tumor organoids as described. Tumor organoids were then treated with TOP2A inhibitors at 10 μM for an additional 72 h. Following treatment, tumor organoids were stained with 16 μM of Hoechst 33342 for 1 h, which functions as a nuclear stain for imaging segmentation. Images were taken with a 5× air objective.

Human TOP2A = target: T1, Human TOP2A (Homo sapiens, UniProt P11388); test: TOP2A DNA decatenation assay (kDNA, agarose gel); type: biochemical; conditions: for inhibition at 30 µM: 1 h, read-out: % Inhibition TOP2A (30 μM); for inhibition at 30 µM / % Inhibition TOP2A (30 μM): decatenation, 30 μM fixed concentration; for IC50: decatenation dose response; for TOP2A inhibition, result in words: decatenation screen at 30 μM
T1 construct: purchased TopoGEN (Buena Vista, CO)
Description: Inhibition of TOP2A activity. Human TOP2A, kDNA, and assay buffers were obtained from TopoGEN (Buena Vista, CO). The synthesized compounds were screened for their TOP2A inhibitory activity by the intensity of DNA decatenation bands on a DNA gel when compared to the vehicle. Compounds were initially incubated with TOP2A (3 U/reaction) for 20 min at a 30 μM and 1.2% DMSO concentration in a 37° C. incubator without CO2.
The decatenation reaction was initiated immediately after by adding 2 mM ATP and 35 ng/reaction of kDNA, then incubated for 1 hour in a 37° C. water bath. The samples were loaded into a 0.8% agarose gel in 1× Tris-Borate-EDTA (TBE) at a 0.2 μg/mL ethidium bromide concentration and allowed to run in an electrophoretic chamber for 1 hour at 100V. Compounds with the highest inhibitory activity were selected for 2-fold serial dilution dose-response assays (58.6 nM-30 μM). The dose-response assays followed the same protocol with the exception of 4 U/reaction of TOP2A.
Inhibition studies of TOP2A and observed structure activity relationships (SAR). DNA catenation/decatenation or linking/unlinking of DNA is one of the main TOP2A functions essential for regulating DNA topology, and this is ATP dependent. […] Thus, as a starting point, the synthesized analogs were screened against TOP2A-dependent decatenation using 30 μM fixed concentrations, and the DNA from reactions were resolved on 0.8% agarose gels containing ethidium bromide.
Moreover, these studies provided interesting SAR, which shed light on the potential lead drug target binding interactions and affinity, biological activity, and future drug design optimization with this unique class of TOP2A inhibitors.
(§1) TOP2A decatenation assay. Human TOP2A, kDNA, and assay buffers were obtained from TopoGEN (Buena Vista, CO). The synthesized compounds were screened for their TOP2A inhibitory activity by the intensity of DNA decatenation bands on a DNA gel when compared to the vehicle. Compounds were initially incubated with TOP2A (3 U/reaction) for 20 min at a 30 μM and 1.2% DMSO concentration in a 37° C. incubator without CO2. The decatenation reaction was initiated immediately after by adding 2 mM ATP and 35 ng/reaction of kDNA, then incubated for 1 h in a 37° C. water bath. The samples were loaded into a 0.8% agarose gel in 1× Tris-Borate-EDTA (TBE) at a 0.2 μg/mL ethidium bromide concentration and allowed to run in an electrophoretic chamber for 1 h at 100V. Compounds with the highest inhibitory activity were selected for 2-fold serial dilution dose-response assays (58.6 nM-30 μM). The dose-response assays followed the same protocol with the exception of 4 U/reaction of TOP2A,
as §1, with “assays (53.6” for “assays (58.6”, “of TOP2A.” for “of TOP2A,”

[3] = Homo sapiens, SW-620, Table 2, SW620 tumor organoids, read-out: % TCP inhibition IC50
[4] = SW620-TOP tumor organoids, read-out: IC50 inhibition of TCF-transcription
[5] = Homo sapiens, SW-620, 72 h, read-out: % Vimentin downregulation EC50 (μM)
[6] = read-out: IC50 TOP2A inhibition
[7] = read-out: % Vimentin downregulation EC50, Table 2, SW620 tumor organoids, 72 hours
[8] = Table 1, read-out: % Inhibition TOP2A (IC50 Values)

T1 sequence (P11388 whole entry): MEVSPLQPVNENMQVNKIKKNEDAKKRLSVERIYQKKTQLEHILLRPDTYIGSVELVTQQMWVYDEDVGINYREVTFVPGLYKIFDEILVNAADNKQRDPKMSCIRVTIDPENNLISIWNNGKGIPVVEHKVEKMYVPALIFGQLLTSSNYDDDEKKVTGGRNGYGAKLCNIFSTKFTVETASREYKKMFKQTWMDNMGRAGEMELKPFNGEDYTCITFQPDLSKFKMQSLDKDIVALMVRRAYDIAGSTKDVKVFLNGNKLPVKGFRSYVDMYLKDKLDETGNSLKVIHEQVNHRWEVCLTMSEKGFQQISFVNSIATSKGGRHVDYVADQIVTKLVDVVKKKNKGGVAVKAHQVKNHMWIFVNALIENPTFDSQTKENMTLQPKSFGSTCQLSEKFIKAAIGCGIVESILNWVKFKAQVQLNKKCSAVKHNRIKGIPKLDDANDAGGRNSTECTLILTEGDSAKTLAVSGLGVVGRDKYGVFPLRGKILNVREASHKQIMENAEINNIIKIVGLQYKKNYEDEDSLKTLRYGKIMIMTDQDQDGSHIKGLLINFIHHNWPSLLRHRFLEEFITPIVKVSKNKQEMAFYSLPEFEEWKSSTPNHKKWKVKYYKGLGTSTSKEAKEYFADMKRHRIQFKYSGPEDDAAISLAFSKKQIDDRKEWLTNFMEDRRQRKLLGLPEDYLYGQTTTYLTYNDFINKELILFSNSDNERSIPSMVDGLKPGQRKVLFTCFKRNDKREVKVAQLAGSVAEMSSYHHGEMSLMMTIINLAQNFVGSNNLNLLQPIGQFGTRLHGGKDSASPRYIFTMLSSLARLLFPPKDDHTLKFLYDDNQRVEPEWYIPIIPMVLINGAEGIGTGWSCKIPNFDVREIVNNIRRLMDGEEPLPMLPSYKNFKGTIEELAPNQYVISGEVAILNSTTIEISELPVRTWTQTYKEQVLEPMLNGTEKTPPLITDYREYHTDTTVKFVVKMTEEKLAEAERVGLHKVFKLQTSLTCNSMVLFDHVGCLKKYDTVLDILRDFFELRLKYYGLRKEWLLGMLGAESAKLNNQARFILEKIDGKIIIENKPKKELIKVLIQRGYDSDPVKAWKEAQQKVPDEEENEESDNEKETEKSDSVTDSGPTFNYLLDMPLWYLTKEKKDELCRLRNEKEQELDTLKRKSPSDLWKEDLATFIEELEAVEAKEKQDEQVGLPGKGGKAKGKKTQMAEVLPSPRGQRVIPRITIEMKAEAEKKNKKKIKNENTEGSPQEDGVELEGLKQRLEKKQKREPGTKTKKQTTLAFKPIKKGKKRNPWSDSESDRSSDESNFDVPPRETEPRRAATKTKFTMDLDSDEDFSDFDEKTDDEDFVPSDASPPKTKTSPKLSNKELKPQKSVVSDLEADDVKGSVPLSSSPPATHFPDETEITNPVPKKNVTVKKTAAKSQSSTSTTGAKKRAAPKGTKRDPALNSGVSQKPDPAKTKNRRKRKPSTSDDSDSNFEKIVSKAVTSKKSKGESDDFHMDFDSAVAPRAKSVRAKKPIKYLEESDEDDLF

| SMILES | IC50 [1, 3] [µM] | IC50 [1, 4] [µM] | EC50 [2, 5] [µM] | inhibition at 30 µM (Human TOP2A; Table 1) [%] | IC50 (Human TOP2A; [6]) | EC50 [2, 7] [µM] | IC50 (Human TOP2A; [8]) [µM] | % Inhibition TOP2A (30 μM) (Human TOP2A; Table 1) [%] | TOP2A inhibition, result in words (Human TOP2A) | inhibition of TCF-transcription (TOP-activity), in words ([1]; SW620 tumor organoids, TOPflash reporter) | vimentin downregulation (VimPro-GFP), in words ([2]; SW620 tumor organoids) | IC50 ([1]; Table 2, SW620 tumor organoids, read-out: % TCP inhibition IC50) [µM] |
| --- | --- | --- | --- | --- | --- | --- | --- | --- | --- | --- | --- | --- |
| O=C(CCN1CCOCC1)Nc1ccc2c(-c3cc(F)ccc3O)ccnc2c1O [Analog 42] | 3.2 | 3.2 | 13.2 | 90 | 0.6 µM | – | – | – | – | – | – | – |
| CC(=O)Nc1ccc(-c2ccnc3c(O)c(NC(C)=O)ccc23)cc1 [Analog 35] | – | 2 | – | – | – | 9.5 | 1.9 | 97.0 | restored inhibitory activity against TOP2A | – | – | – |
| CC(=O)Nc1ccc2c(-c3ccoc3)ccnc2c1O [Analog 56] | 7 | – | 25.7 | 86 | – | – | 6.4 | – | – | – | – | – |
| CC(=O)Nc1ccc2c(-c3cc(F)ccc3O)ccnc2c1O [Analog 7] | 6 | – | 10.8 | 99 | 5.81 µM and 5.8 µM | – | – | – | complete enzyme inhibition | significantly inhibit TOP-activity; also recorded: significantly inhibit TOP2A-dependent TCF-transcription | dose-dependent downregulation of vimentin | – |
| Cn1ccc2c(c1=O)C(=O)c1nccc3c1C2NC1=CCC=CC13 (stereo not drawn) [neo, neoamphimedine, reference compound] | – | – | – | – | – | – | – | – | significantly inhibits TOP2A mediated DNA decatenation | – | – | – |
| CC(C)(C)C(=O)Nc1ccc2c(-c3ccccc3)ccnc2c1O [Analog 39] | – | – | – | – | ~1 µM | 4.7 | 1.3 | 97.0 | – | – | – | 4.7 |
